From patent publication US20080044404A1, “Annexin V for Preventing Atherothrombosis and Plaque Rupture” (priority 2004, published 2008)
Where “and” joins values, the source holds several entries; their conditions need not be identical. Equal values may be shown once. Read-outs that look alike come from different tables or passages of the source.

Experiments:
[1] = Serum binding to antigen after preincubation of serum with antigen; settings: preincubation of serum with high capacity to induce decreased binding
Source text: Polysorp F96 microtiter immuno-plates were purchased from Nunc (Roskilde Denmark), PC-BSA (Phosphorylcholine-Bovine Serum Albumin) was purchased from Biosearch Technologies, INC (USA). Bovine serum albumin (BSA), Alkaline phosphatase conjugated goat anti-human IgG (r-chain specific), Alkaline phosphatase conjugated goat anti-human IgM (u-chain specific), PNPP(Alkaline phosphatase substrate), were obtained from Sigma (St. Louis, Mo., USA). For example, IgG and IgM antibodies to PC-BSA were determined by enzyme-linked immunosorbent assay (ELISA). Pooled serum from 17 antiphospholipid syndrome patients was used as an internal standard and tested on every plate. […] F96 microtiter polysorp plate was therefore coated with PC-BSA (10 μg/ml) 50 μl/well in PBS. Coated plates were incubated overnight at 4° C. After five washings with PBS, the plates were blocked with 2% BSA-PBS for 2 h at room temperature and washed as described above. Serum samples were diluted (1:30) in 0.2% BSA-PBS and added at 50 μl/well.

[2] = test system: human umbilical endothelia cells (HUVECs); experiment: Annexin V binding to HUVECs after 24 hrs culture with high aPLs titer serum pre-incubated with test substance, flow cytometry; assay type: cell-based; settings: for Mean % of APS, Av / Median % of APS, Av: average of three; for Mean % of APS, Av / Median % of APS, Av / Mean % of APS / Median % of APS: 24 hrs culture; for Mean % of APS / Median % of APS: single experiments; for Effect on Annexin V binding to endothelial cells: preincubation of serum known to decrease binding; for Geo Mean (fluorescence) / Mean (fluorescence) / Median (fluorescence) / Peak Ch / % Gated (Annexin V positive region): file '100' 24 hrs on HUVEC
Description: Cryopreserved pooled human umbilical venous endothelial cells (HUVECs) at passage 2 were purchased from Cascade Biologics, Inc. (Portland, Oreg., USA) the cultures were maintained in EGM™ phenol red-free medium (Clonetics, San Diego, Calif., USA), containing 2% of fetal bovine serum and supplements. The cells were incubated in 75 cm2 flasks (TPP, AG, Trasadingen, Switzerland) under humidified 5% CO2 in 37° C. conditions. All experiments were performed at passage 3 to 4. HUVECs were seeded at 2×10^4 cells/ml density in 12-well plates (NUNC, Inc, Naperville, Ill., USA) for flow cytometry analysis; at density of 1×10^4 cells/well/100 μl in 96-well plate (TPP) for MTT assay; at 8×10^3 cells/ml. density in 24-well plates (NUNC) for DNA fragmentation ELISA. After allowing 12-24 hours for attachment and careful washing with serum-free medium (SFM), the cells were made quiescent in SFM for at least 12 hrs prior to treatment. Heparin-preserved plasma from the study groups was added to the monolayer at concentration of 10% in SFM.
The cells were harvested non-enzymatically with Cell Dissociation Solution (CDS; Sigma-Aldrich, St. Louis, Mo., USA). HUVECs were carefully pooled with supernatants, to exclude selective loss of detached floating EC, and centrifuged at 1200 rpm for 7 min. After resuspension in 100 μl of Annexin V-binding buffer (Molecular Probes Inc, Eugene, Oreg., USA) samples were stained with 5 mg/ml of Annexin V-FITC (Mol. Probes) and incubated for 15 min on ice. Shortly before acquisition 1 mg/ml of propidium iodide (PI; R&DSystems Europe Ltd, Abingdon, UK) was added. Analysis was performed on a FACScan flow cytometer (BD Biosciences, San Jose, Calif., USA) equipped with CellQuest™ software. During acquisition a gate was set to exclude events smaller than 230 on linear FCS and SSC scale. For each sample 10000 events were collected.
Heparin-preserved plasma with high capacity to inhibit Annexin V binding was added to HUVECs monolayer at concentration of 10% in SFM. After 24 hrs cells were harvested with Cell Dissociation Solution (CDS; Sigma-Aldrich, St. Louis, Mo., USA) and carefully pooled with supernatants, to exclude selective loss of detached floating cells, centrifugation at 1200 rpm for 7 min followed. After resuspension in 100 μl of annexin V-binding buffer (Molecular Probes Inc, Eugene, Oreg., USA) samples were stained with 2 μl of 5 mg/ml annexin V-FITC (Molecular Probes) and incubated for 15 min on ice. Shortly before acquisition 1 mg/ml of propidium iodide (PI; a vital dye; R&DSystems Europe Ltd, Abingdon, UK) was added. Analysis was performed as described above.
The frequency of HUVECs positive for Annexin V staining was determined either as percentage of annexin V^+/PI^− cells on a bivariate dot plot or percentage of Annexin V^+ cells based on a histogram. Annexin V-binding to HUVECs in the presence of serum known to decrease binding and preincubated with IVIG was determined.

[3] = humans; cited from earlier work
[4] = experimental animals; cited from earlier work

Molecule	Serum binding to antigen [1]	Mean % of APS, Av ([2]; 10 μg/ml)	Median % of APS, Av ([2]; 10 μg/ml)	Mean % of APS ([2]; 10 μg/ml)	Median % of APS ([2]; 10 μg/ml)	Mean % of APS, Av ([2]; 100 μg/ml)	Median % of APS, Av ([2]; 100 μg/ml)	Mean % of APS ([2]; 100 μg/ml)	Median % of APS ([2]; 100 μg/ml)	Effect on Annexin V binding to endothelial cells [2]	Geo Mean (fluorescence) ([2]; all events (100.00 % gated))	Mean (fluorescence) ([2]; all events (100.00 % gated))	Median (fluorescence) ([2]; all events (100.00 % gated))	Peak Ch ([2]; all events (100.00 % gated))	% Gated (Annexin V positive region) ([2]; second histogram region) [%]	Geo Mean (fluorescence) ([2]; second histogram region)	Mean (fluorescence) ([2]; second histogram region)	Median (fluorescence) ([2]; second histogram region)	Peak Ch ([2]; second histogram region)	other results
CCCCCCCCCCCCCCCCOC[C@H](COP(=O)([O-])OCC[N+](C)(C)C)OC(C)=O [PAF]	decreased serum binding to antigen	135 % of APS	132 % of APS	100 % of APS and 155.6 % of APS and 149.8 % of APS	99 % of APS and 134 % of APS and 164 % of APS	137 % of APS	136 % of APS	151 % of APS and 122 % of APS and 139 % of APS	145 % of APS and 116 % of APS and 147 % of APS	restored Annexin V binding										
lysophosphatidylcholine [Lyso PC]	decreased serum binding to antigen	150 % of APS	146 % of APS	123.6 % of APS and 156.9 % of APS and 169.5 % of APS	121.88 % of APS and 138.23 % of APS and 178.5 % of APS	156 % of APS	155 % of APS	158.1 % of APS and 114.7 % of APS and 195.12 % of APS	175.39 % of APS and 115.4 % of APS and 174.65 % of APS	restored Annexin V binding	62.95	275.37	153.99	1	67.03	268.96	408.50	352.27	453	
phosphatidylserine	decreased serum binding to antigen									restored Annexin V binding										
C[N+](C)(C)CCOP(=O)(O)O [PC, phosphorylcholine]										no significant effect										
Annexin V: Annexin V protein, binds calcium and negatively charged phospholipids																				half-life in the circulation [3]: short half-life; half-life in the circulation [4]: 5 to 15 min
tetanus toxoid											47.62	155.14	113.42	1	66.69	173.93	230.12	212.88	222	
